Earlier results on 15 molecules are cited in patent US20230240327A1, “FUNCTIONAL SOYBEAN MEAL” (CAN TECHNOLOGIES, INC., priority 2020, published 2023).

One data set deals with Bacteria. The conditions noted are these: when in their dissociated form.
The next data set relates to microorganisms. The conditions noted are these: according to several studies; compared with antibiotics.
The conditions of data set [1]: Table 7.

Molecules are shown by their SMILES. Read-outs that look alike come from different tables or passages of the source.

For the molecule `O=CO` [Formic acid], in the data set on poultry (0.50 - 1.00 wt% of feed (formic acid)), the Main effects entry is “Reduction of coecal pH and bactericidal effect on Salmonella”. The bactericidal effect result in the data set on Bacteria is given as “bactericidal effect”. For `O=C(O)/C=C/C(=O)O` [Fumaric acid], in the data set on poultry (0.50 - 1.00 wt% of feed (fumaric acid)), the Main effects entry is “Improvement in weight gain of broilers”.

As for `C/C=C/C=C/C(=O)O` [Sorbic acid], in the data set with poultry (1.12 wt% of feed), the Main effects entry was “Improves feed efficiency”. Moreover, in the data set on Bacteria, the bactericidal effect result was “bactericidal effect”. For the molecule `CCCC(=O)O` [Butyric acid], the Main effects result in the data set with poultry (0.15 wt% of feed (butyric acid)) is recorded as “Maintain the beneficial micro flora”. As for `O=C(O)C(O)C(O)C(=O)O` (stereo not drawn) [Tartaric acid], the Main effects entry in the data set on poultry (0.33 wt% of feed) is recorded as “Improves weight gain”. In the case of `C=CCc1ccc(O)c(OC)c1` [eugenol], in the data set on microorganisms, the antimicrobial activity result is “stronger than in some antibiotics”. As for `CC(O)C(=O)O` (stereo not drawn) [Lactic acid], the Main effects result in the data set on poultry (2.00 wt% of feed) was “Feed to gain ratio significantly improved. Body weight gain”. The bactericidal effect entry in the data set with Bacteria is “bactericidal effect”. Regarding `CCC(=O)O` [Propionic acid], the bactericidal effect entry in the data set with Bacteria is on record as “bactericidal effect”. As usually defined, the pKa is the pH at which an ionisable group is half protonated. `CCCCCCCCCCCC(=O)O` [Lauric acid]: in data set [1], the pKa is given as 5.13. Consider `O=C(O)c1ccccc1` [Benzoic acid], for which the Main effects entry with poultry (0.20 wt% of feed) is “Positive influence on growth”.

Regarding `CCC(=O)O` [Propionic acid (buffered), Propionic acid], the Main effects entry with poultry (0.15 - 0.20 wt% of feed (buffered propionic acid)) is reported as “Increase in dressing percentage in female broilers”. As for `CC(C)=CCC/C(C)=C/CO` [geraniol], in the data set with microorganisms, the antimicrobial activity entry was “stronger than in some antibiotics”.

As for `Cc1ccc(C(C)C)cc1O` [carvacrol], the antimicrobial activity entry with microorganisms is on record as “stronger than in some antibiotics”.

With `Cc1ccc(C(C)C)c(O)c1` [thymol], in the data set on microorganisms, the antimicrobial activity result is given as “stronger than in some antibiotics”. Turning to `O=C(O)CC(O)C(=O)O` (stereo not drawn) [Malic acid], the Main effects result in the data set on poultry (0.50 - 2.00 wt% of feed) is “Increase in weight gain”.
